≈ marks a conversion by molar mass, not a printed value. Calls of active or inactive are those of the source. No cut-off for these calls is given here.
Legend:
Bacillus subtilis = experiment: Antibacterial activity against penicillin-susceptible Bacillus subtilis ATCC 9372; type: functional
Acinetobacter baumannii = experiment: Antibacterial activity against Acinetobacter baumannii ATCC 19606; type: functional
Staphylococcus aureus [1] = experiment: Selectivity ratio of MBC for bactericidal activity against methicillin-resistant Staphylococcus aureus ATCC 43300 in presence of 50% human serum to MBC for bactericidal activity against methicillin-resistant Staphylococcus aureus ATCC 43300; type: functional
Cell membrane [2] = experiment: Disruption of cell membrane in methicilin-resistant Staphylococcus aureus ATCC 43300 assessed as appearance of collapsed cell membrane by scanning electron microscopic analysis; type: cell membranes
Staphylococcus aureus [3] = experiment: Bacteriostatic activity against methicillin-resistant Staphylococcus aureus ATCC 43300 assessed as inhibition of bacterial growth at 2 times of MIC measured after 24 hrs by time-kill kinetic analysis; type: functional, organism-based
Staphylococcus aureus [4] = experiment: Selectivity ratio of MBC for bactericidal activity against methicillin-resistant Staphylococcus aureus ATCC 43300 in presence of 50% human blood to MBC for bactericidal activity against methicillin-resistant Staphylococcus aureus ATCC 43300; type: functional
Cell membrane [5] = experiment: Disruption of cell membrane integrity in methicillin-resistant Staphylococcus aureus ATCC 43300 assessed as appearance of red fluorescence by DAPI/PI staning based microscopic analysis; type: cell membranes
Cell membrane [6] = experiment: Induction of cell membrane disruption in methicillin-resistant Staphylococcus aureus ATCC 43300 assessed as increase in DNA leakage; type: cell membranes
Staphylococcus aureus [7] = experiment: Antibacterial activity against methicillin-resistant Staphylococcus aureus ATCC 43300 at 1/2 times of MIC measured after 20 passage; type: functional, organism-based
Cell membrane [8] = experiment: Disruption of cell membrane integrity in methicillin-resistant Staphylococcus aureus ATCC 43300 assessed as appearance of blue fluorescence by DAPI/PI staining based microscopic analysis; type: cell membranes
Staphylococcus aureus [9] = experiment: Inhibition of biofilm formation in methicillin-resistant Staphylococcus aureus ATCC 43300; type: functional, organism-based; settings: dose 2-32 µg/ml
Staphylococcus aureus [10] = experiment: Bactericidal activity against methicillin-resistant Staphylococcus aureus ATCC 43300 in presence of 50% human plasma by Mueller Hinton broth based assay; type: functional
Staphylococcus aureus [11] = experiment: Bacteriostatic activity against methicillin-resistant Staphylococcus aureus ATCC 43300 assessed as inhibition of bacterial growth at 1 times of MIC measured after 24 hrs by time-kill kinetic analysis; type: functional, organism-based
Staphylococcus aureus [12] = experiment: Disruption of preformed biofilm in methicillin-resistant Staphylococcus aureus ATCC 43300 assessed as eradication of biofilm by crystal violet staining method; type: functional, organism-based; settings: dose 2-64 µg/ml
[13] = Selectivity index, ratio of HC50 for hemolytic activity in sheep RBC to MIC for antibacterial activity against methicillin-resistant Staphylococcus aureus ATCC 43300; type: toxicity; settings: sheep red blood cells (erythrocytes), read-out: Selectivity Index
Staphylococcus aureus [14] = experiment: Antibacterial activity against penicillin-resistant Staphylococcus aureus ATCC 31007; type: functional
[15] = Hemolytic activity in sheep RBC; type: toxicity, cell-based, Ovis aries, Erythrocyte; settings: sheep red blood cells (erythrocytes)
Staphylococcus aureus [16] = experiment: Bactericidal activity against methicillin-resistant Staphylococcus aureus ATCC 43300 by Mueller Hinton broth based assay; type: functional; settings: time <= 6 hrs
Cell membrane [17] = experiment: Disruption of cell membrane in methicilin-resistant Staphylococcus aureus ATCC 43300 assessed as appearance of wrinkled cell membrane by scanning electron microscopic analysis; type: cell membranes
Staphylococcus aureus [18] = experiment: Inhibition of biofilm formation in methicillin-resistant Staphylococcus aureus ATCC 43300 at 16 microg/ml relative to control; type: functional
Pseudomonas aeruginosa = experiment: Antibacterial activity against penicillin-susceptible Pseudomonas aeruginosa ATCC 27853; type: functional
Cell membrane [19] = experiment: Disruption of cell membrane in methicillin-resistant Staphylococcus aureus ATCC 43300 assessed as appearance of broken surface by scanning electron microscopic analysis; type: cell membranes
Cell membrane [20] = experiment: Induction of cytoplasmic membrane depolarization in methicillin-resistant Staphylococcus aureus ATCC 43300 assessed as increase in fluorescence intensity by DiSC3(5) dye-based fluorescence assay; type: cell membranes
Staphylococcus aureus [21] = experiment: Bactericidal activity against methicillin-resistant Staphylococcus aureus ATCC 43300 in presence of 50% human serum by Mueller Hinton broth based assay; type: functional
Staphylococcus aureus [22] = experiment: Antibacterial activity against methicillin-resistant Staphylococcus aureus ATCC 43300; type: functional
Staphylococcus aureus [23] = experiment: Disruption of preformed biofilm in methicillin-resistant Staphylococcus aureus ATCC 43300 assessed as eradication of biofilm at 64 microg/ml by crystal violet staining based analysis relative to control; type: functional; settings: dose 64 µg/ml
Staphylococcus aureus [24] = experiment: Inhibition of biofilm formation in methicillin-resistant Staphylococcus aureus ATCC 43300 at 8 microg/ml relative to control; type: functional
Cell membrane [25] = experiment: Induction of cytoplasmic membrane permeabilization in methicillin-resistant Staphylococcus aureus ATCC 43300 assessed as increase fluorescence intensity at 16 microg/ml by PI staining based fluorescence analysis; type: cell membranes; settings: dose 16.0 µg/ml
Staphylococcus aureus [26] = experiment: Antibacterial activity against erythromycin-susceptible Staphylococcus aureus ATCC 25923; type: functional
Staphylococcus aureus [27] = experiment: Drug resistance, ratio of MIC for methicillin-resistant Staphylococcus aureus ATCC 43300 after 20 passages to MIC for methicillin-resistant Staphylococcus aureus ATCC 43300 during first exposure; type: functional
Staphylococcus aureus [28] = experiment: Bactericidal activity against methicillin-resistant Staphylococcus aureus ATCC 43300 assessed as log reduction in bacterial growth at 16 times of MIC measured after 4 hrs by time killing analysis; type: functional
Staphylococcus aureus [29] = experiment: Induction of ROS production in methicillin-resistant Staphylococcus aureus ATCC 43300 assessed as fold increase in ROS level at 32 microg/ml by DCFH-DA staining based analysis; settings: dose 32 µg/ml
Staphylococcus aureus [30] = experiment: Bactericidal activity against methicillin-resistant Staphylococcus aureus ATCC 43300 assessed as bacterial eradication at 16 times of MIC measured at 8 hrs by time kill kinetics analysis relative to control; type: functional
[31] = system: Staphylococcus epidermidis; experiment: Antibacterial activity erythromycin-susceptible Staphylococcus epidermidis ATCC 12228; type: functional
Klebsiella pneumoniae = experiment: Antibacterial activity against Klebsiella pneumoniae ATCC 10031; type: functional
Staphylococcus aureus [32] = experiment: Bactericidal activity against methicillin-resistant Staphylococcus aureus ATCC 43300 in presence of 50% human blood by Mueller Hinton broth based assay; type: functional; settings: ATCC 43300, Blood, time <= 6 hrs
Enterococcus faecalis = experiment: Antibacterial activity against vancomycin-susceptible Enterococcus faecalis ATCC 29212; type: functional
Staphylococcus aureus [33] = experiment: Disruption of preformed biofilm in methicillin-resistant Staphylococcus aureus ATCC 43300 assessed as eradication of biofilm at 8 microg/ml by crystal violet staining based analysis relative to control; type: functional; settings: dose 8 µg/ml
Cell membrane [34] = experiment: Induction of cytoplasmic membrane depolarization in methicillin-resistant Staphylococcus aureus ATCC 43300 assessed as increase in fluorescence intensity at 2 microg/ml by DiSC3(5) dye-based fluorescence assay; type: cell membranes; settings: dose 2.0 µg/ml
Staphylococcus aureus [35] = experiment: Selectivity ratio of MBC for bactericidal activity against methicillin-resistant Staphylococcus aureus ATCC 43300 preincubated with 50% human plasma upto 6 hrs to MBC for bactericidal activity against methicillin-resistant Staphylococcus aureus ATCC 43300; type: functional
Escherichia coli = experiment: Antibacterial activity against penicillin-susceptible Escherichia coli ATCC 25922; type: functional
Cell membrane [36] = experiment: Induction of cell membrane disruption in methicillin-resistant Staphylococcus aureus ATCC 43300 assessed as increase in protein leakage; type: cell membranes
Staphylococcus aureus [37] = experiment: Bactericidal activity against methicillin-resistant Staphylococcus aureus ATCC 43300 assessed as reduction in bacterial growth; type: functional, organism-based
Staphylococcus aureus [38] = experiment: Inhibition of biofilm formation in methicillin-resistant Staphylococcus aureus ATCC 43300 at 2 microg/ml relative to control; type: functional
Staphylococcus aureus [39] = experiment: Drug resistance, ratio of MIC for methicillin-resistant Staphylococcus aureus ATCC 43300 after 19 days exposure to MIC for methicillin-resistant Staphylococcus aureus ATCC 43300 during first exposure; type: functional; settings: time 19 day

CCN(CC)CCCNCCCOc1ccc(/C=C/C(=O)c2ccc3c(c2OC)C=CC(C)(CCC=C(C)C)O3)cc1 (stereo not given)
MIC (Bacillus subtilis): 1 µg/mL (≈ 1.74 µM)
MIC (Acinetobacter baumannii): 8 µg/mL (≈ 13.9 µM)
selectivity ratio (Staphylococcus aureus [1]): 2
Activity (Cell membrane [2]): Active
Activity (Staphylococcus aureus [3]): Active
selectivity ratio (Staphylococcus aureus [4]): 2
Activity (Cell membrane [5]): Active
Activity (Cell membrane [6]): Active
Activity (Staphylococcus aureus [7]): Active
Activity (Cell membrane [8]): Active
inhibition (Staphylococcus aureus [9]): Dose-Dependent Effect
MBC (Staphylococcus aureus [10]): 32 µg/mL
Activity (Staphylococcus aureus [11]): Active
Activity (Staphylococcus aureus [12]): Dose-Dependent Effect
selectivity ratio [13]: 135
MIC (Staphylococcus aureus [14]): 1 µg/mL (≈ 1.74 µM)
HC50 [15]: 270 µg/mL
MBC (Staphylococcus aureus [16]): 32 µg/mL (≈ 55.7 µM)
Activity (Cell membrane [17]): Active
inhibition at 16 µg/mL (Staphylococcus aureus [18]): > 92%
MIC (Pseudomonas aeruginosa): 64 µg/mL (≈ 111 µM)
Activity (Cell membrane [19]): Active
Activity (Cell membrane [20]): Dose-Dependent Effect
MBC (Staphylococcus aureus [21]): 32 µg/mL
MIC (Staphylococcus aureus [22]): 2 µg/mL (≈ 3.48 µM)
Activity (Staphylococcus aureus [23]): >40%
inhibition at 8 µg/mL (Staphylococcus aureus [24]): 91.6%
Activity (Cell membrane [25]): Active
MIC (Staphylococcus aureus [26]): 2 µg/mL (≈ 3.48 µM)
Ratio (Staphylococcus aureus [27]): 2
log(activity) (Staphylococcus aureus [28]): 6
fold change (FC) (Staphylococcus aureus [29]): 14
Activity (Staphylococcus aureus [30]): 100%
MIC [31]: 1 µg/mL (≈ 1.74 µM)
MIC (Klebsiella pneumoniae): 4 µg/mL (≈ 6.96 µM)
MBC (Staphylococcus aureus [32]): 64 µg/mL
MIC (Enterococcus faecalis): 2 µg/mL (≈ 3.48 µM)
Activity (Staphylococcus aureus [33]): 19.12%
Activity (Cell membrane [34]): inactive
selectivity ratio (Staphylococcus aureus [35]): <2
MIC (Escherichia coli): 2 µg/mL (≈ 3.48 µM)
Activity (Cell membrane [36]): Active
Activity (Staphylococcus aureus [37]): Dose-Dependent Effect
inhibition at 2 µg/mL (Staphylococcus aureus [38]): 21.2%

CCn1cc(C(=O)O)c(=O)c2cc(F)c(N3CCNCC3)cc21 [NORFLOXACIN]
Ratio (Staphylococcus aureus [39]): 512

From ChEMBL document CHEMBL5614413, “Design, synthesis and biological evaluation of amphiphilic benzopyran derivatives as potent antibacterial agents against multidrug-resistant bacteria” (Eur J Med Chem, 2024)
